Results: US11639350B2, “Heteroaryldihydropyrimidine derivatives and methods of treating hepatitis B infections” (Janssen Pharmaceutica NV, priority 2018, dated 2023)

Key:
[1] = Cytotoxicity determination in HepG2.2.15 cells (CCK-8); assay type: cell-based; conditions: human, 6 days of compound treatment, CCK-8, highest concentration 100 μM
Procedure, shortened: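 HepG2.2.15 cells seeded at 5,000 cells/well in 2% FBS medium, incubated overnight at 37° C., then treated 6 days with compounds (8 points, 3-fold dilutions, top 100 μM), medium refreshed once midway. CCK-8 added for 2.5 h; A450 read against 630 nm reference; CC50 calculated, averaged over repeats.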

HBV = HBV inhibitory activity: HBV DNA in the culture medium of HepG2.2.15 cells by q-PCR; assay type: cell-based; conditions: Hepatitis B virus, HepG2.2.15, 144 h, HepG2.2.15 cells, 6 days of compound treatment, HBV DNA in culture medium by q-PCR, highest concentration 10 μM; read-out: EC50
Procedure, shortened: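 HepG2.2.15 cells in 2% FBS medium, 40,000 per well, treated 6 days with compound (medium refreshed once), eight 3-fold dilutions from 10 μM top. HBV DNA extracted from culture medium and quantified by q-PCR; EC50 averaged over repeats. Cytotoxicity run in parallel at 5,000 cells per well, top 100 μM, giving CC50.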

Structure (SMILES) | CC50 at 6 days [1] [nM] | EC50 (HBV) [nM]
COC(=O)C1=C(C2CCN(S(=O)(=O)CCC(=O)O)CC2)NC(c2nccs2)=NC1c1ccc(F)c(F)c1Cl (stereo not drawn) [Compound 230, 3-((4-(6-(2-Chloro-3,4-difluorophenyl)-5-(methoxycarbonyl)-2-(thiazol-2-yl)-3,6-dihydropyrimidin-4-yl)piperidin-1-yl)sulfonyl)propanoic Acid] | > 100000 | 146
COC(=O)C1=C(C2CCN(S(=O)(=O)c3cn[nH]c3)CC2)NC(c2nccs2)=NC1c1ccc(F)c(F)c1Cl (stereo not drawn) [Compound 324, methyl 6-(1-((1H-pyrazol-4-yl)sulfonyl)piperidin-4-yl)-4-(2-chloro-3,4-difluorophenyl)-2-(thiazol-2-yl)-1,4-dihydropyrimidine-5-carboxylate] | 9800 | 5
COC(=O)C1=C(C2CCN(S(=O)(=O)c3cnn([C@H]4C[C@H](C(=O)O)C4)c3)CC2)NC(c2nccs2)=NC1c1ccc(F)cc1Cl (stereo partly drawn) [Compound 470, (trans)-3-(4-((4-(6-(2-Chloro-4-fluorophenyl)-5-(methoxycarbonyl)-2-(thiazol-2-yl)-3,6-dihydropyrimidin-4-yl)piperidin-1-yl)sulfonyl)-1H-pyrazol-1-yl)cyclobutanecarboxylic Acid] | 20100 | 56
COC[C@@H](O)CN([C@H]1CC[C@H](C2=C(C(=O)OC)C(c3ccc(F)c(F)c3Cl)N=C(c3nccs3)N2)CC1)S(C)(=O)=O (single isomer, unassigned) [Compound 245D] | 12500 | 15
COC(=O)C1=C(C2CCC(S(=O)(=O)N3CCC3)CC2)NC(c2nccs2)=NC1c1ccc(F)c(F)c1Cl (stereo not drawn) [Compound 430, methyl 6-(4-(azetidin-1-ylsulfonyl)cyclohexyl)-4-(2-chloro-3,4-difluorophenyl)-2-(thiazol-2-yl)-1,4-dihydropyrimidine-5-carboxylate] | 15100 | 15
CCOC(=O)C1=C([C@@H]2CCN(S(C)(=O)=O)[C@@H](CO)C2)NC(c2nccs2)=NC1c1ccc(F)cc1Cl (single isomer, unassigned) [Compound 379C, ethyl 4-(2-chloro-4-fluorophenyl)-6-((trans)-2-(hydroxymethyl)-1-(methylsulfonyl)piperidin-4-yl)-2-(thiazol-2-yl)-1,4-dihydropyrimidine-5-carboxylate] | 32600 | 55
COC(=O)C1=C(C2CN(S(=O)(=O)C3CCC3)C2)NC(c2nccs2)=NC1c1ccc(F)cc1Cl (stereo not drawn) [Compound 80, Methyl 4-(2-chloro-4-fluorophenyl)-6-(1-(cyclobutylsulfonyl)-azetidin-3-yl)-2-(thiazol-2-yl)-1,4-dihydropyrimidine-5-carboxylate] | 6300 | 107
COC(=O)C1=C(C2CCN(S(=O)(=O)[C@H]3C[C@H](C(=O)O)C3)CC2)NC(c2nccs2)=NC1c1ccc(F)cc1Cl (relative stereo) [Compound 285A, trans-3-((4-(6-(2-Chloro-4-fluorophenyl)-5-(methoxycarbonyl)-2-(thiazol-2-yl)-3,6-dihydropyrimidin-4-yl)piperidin-1-yl)sulfonyl)cyclobutane-carboxylic Acid] | 67200 | 24
COC(=O)C1=C(C2CCCC3(C2)OCCO3)NC(c2nccs2)=NC1c1ccc(F)cc1Cl (stereo not drawn) [Compound 218, Methyl 4-(2-chloro-4-fluorophenyl)-6-(1,4-dioxaspiro[4.5]decan-7-yl)-2-(thiazol-2-yl)-1,4-dihydropyrimidine-5-carboxylate] | 29700 | 148
COC(=O)C1=C(C2CCN(S(=O)(=O)[C@H]3C[C@@H](C(C)(C)O)C3)CC2)NC(c2nccs2)=NC1c1ccc(F)cc1Cl (single isomer, unassigned) [Compound 244D, (cis)-Methyl 4-(2-chloro-4-fluorophenyl)-6-(1-((3-(2-hydroxypropan-2-yl)cyclobutyl)sulfonyl)piperidin-4-yl)-2-(thiazol-2-yl)-1,4-dihydropyrimidine-5-carboxylate] | 60000 | 107
CCOC(=O)C1=C([C@@H]2CCC[C@H](C(=O)O)CC2)NC(c2nccs2)=NC1c1ccc(F)c(F)c1Cl (relative stereo) [Compound 302C, (cis)-4-(−6-(2-Chloro-3,4-difluorophenyl)-5-(ethoxycarbonyl)-2-(thiazol-2-yl)-3,6-dihydropyrimidin-4-yl)cycloheptanecarboxylic Acid] | 10200 | 50
COC(=O)C1=C(C2CCN(S(C)(=N)=O)CC2)NC(c2nccs2)=NC1c1ccc(F)cc1Cl (stereo not drawn) [Compound 401B, Methyl 4-(2-chloro-4-fluorophenyl)-6-(1-(S-methylsulfonimidoyl)piperidin-4-yl)-2-(thiazol-2-yl)-1,4-dihydropyrimidine-5-carboxylate] | 56200 | 29
CCOC(=O)C1=C([C@H]2CC[C@H](C(=O)O)CC2)NC(c2nccs2)=NC1c1ccc(F)cc1Cl (single isomer, unassigned) [Compound 21, trans-4-(6-(2-Chloro-4-fluorophenyl)-5-(ethoxycarbonyl)-2-(thiazol-2-yl)-3,6-dihydropyrimidin-4-yl)cyclohexanecarboxylic Acid] | 9900 | 31
COC(=O)C1=C([C@H]2C[C@@H](C)CO2)NC(c2nccs2)=NC1c1cccc(F)c1Cl (relative stereo) [Compound 171, (cis)-Methyl 4-(2-chloro-3-fluorophenyl)-6-(4-methyltetrahydrofuran-2-yl)-2-(thiazol-2-yl)-1,4-dihydropyrimidine-5-carboxylate] | 15500 | 124
COC(=O)C1=C(C2CN(S(C)(=O)=O)C2)NC(c2nccs2)=NC1c1ccc(F)cc1Cl (single isomer, unassigned) [Compound 84A, 4-(2-Chloro-4-fluoro-phenyl)-6-(1-methanesulfonyl-azetidin-3-yl)-2-thiazol-2-yl-1,4-dihydro-pyrimidine-5-carboxylic Acid Methyl Ester] | 29000 | 118
COC(=O)C1=C(C2CCN(S(=O)(=O)C[C@H]3CC[C@H](C(=O)O)CC3)CC2)NC(c2nccs2)=NC1c1ccc(F)c(F)c1Cl (stereo partly drawn) [Compound 425, trans-4-(((4-(6-(2-chloro-3,4-difluorophenyl)-5-(methoxycarbonyl)-2-(thiazol-2-yl)-3,6-dihydropyrimidin-4-yl)piperidinyl)sulfonyl)methyl)cyclohexane-1-carboxylic Acid] | 13300 | 6
COC(=O)C1=C(C2CCN(S(=O)(=O)[C@H]3CC[C@@H](C(=O)O)CC3)CC2)NC(c2nccs2)=NC1c1ccc(F)cc1Cl (relative stereo) [Compound 313A, (cis)-4-((4-(6-(2-Chloro-4-fluorophenyl)-5-(methoxycarbonyl)-2-(thiazol-2-yl)-3,6-dihydropyrimidin-4-yl)piperidin-1-yl)sulfonyl)-cyclohexanecarboxylic Acid] | 35000 | 58
COC(=O)C1=C([C@H]2C[C@@H](CO)CO2)NC(c2nccs2)=NC1c1cccc(F)c1Cl (relative stereo) [Compound 221, (cis)-Methyl 4-(2-chloro-3-fluorophenyl)-6-(4-(hydroxymethyl)tetrahydrofuran-2-yl)-2-(thiazol-2-yl)-1,4-dihydropyrimidine-5-carboxylate] | 47100 | 53
COC(=O)C1=C(C2CCN(S(=O)(=O)CCC(=O)O)CC2)NC(c2nccs2)=NC1c1cccc(F)c1Cl (stereo not drawn) [Compound 114, 3-((4-(6-(2-Chloro-3-fluorophenyl)-5-(methoxycarbonyl)-2-(thiazol-2-yl)-3,6-dihydro-pyrimidin-4-yl)piperidin-1-yl)sulfonyl)propanoic Acid] | 27500 | 40
COC[C@H](O)CN([C@H]1CC[C@H](C2=C(C(=O)OC)C(c3ccc(F)c(F)c3Cl)N=C(c3nccs3)N2)CC1)S(C)(=O)=O (single isomer, unassigned) [Compound 245B] | 12300 | 49
COC(=O)C1=C(C2CCN(S(=O)(=O)c3cnn(CCCCC(=O)O)c3)CC2)NC(c2nccs2)=NC1c1ccc(F)cc1Cl (stereo not drawn) [Compound 471, 5-(4-((4-(6-(2-Chloro-4-fluorophenyl)-5-(methoxycarbonyl)-2-(thiazol-2-yl)-3,6-dihydropyrimidin-4-yl)piperidin-1-yl)sulfonyl)-1H-pyrazol-1-yl)pentanoic Acid] | 32300 | 53
COC(=O)C1=C(C2CCN(C(C)=O)CC2)NC(c2nccs2)=NC1c1ccc(F)cc1Cl (single isomer, unassigned) [Compound 2B, Methyl 6-(1-acetylpiperidin-4-yl)-4-(2-chloro-4-fluorophenyl)-2-(thiazol-2-yl)-1,4-dihydropyrimidine-5-carboxylate] | > 100000 | 338
COC(=O)C1=C([C@H]2CC[C@H](C(=O)OC)CC2)NC(c2nccs2)=NC1c1cccc(F)c1Cl (single isomer, unassigned) [Compound 16X, Methyl 4-(2-chloro-3-fluorophenyl)-6-(trans-4-(methoxycarbonyl)-cyclohexyl)-2-(thiazol-2-yl)-1,4-dihydropyrimidine-5-carboxylate] | 29300 | 49
COC(=O)C1=C(C2CCN(S(=O)(=O)C3COC3)C2)NC(c2nccs2)=NC1c1ccc(F)cc1Cl (stereo not drawn) [Compound 255, Methyl 4-(2-chloro-4-fluorophenyl)-6-(−1-(oxetan-3-ylsulfonyl)pyrrolidin-3-yl)-2-(thiazol-2-yl)-1,4-dihydropyrimidine-5-carboxylate] | 24100 | 49
